Laboratory results as given in patent US20110217260A1, “METHOD OF ENHANCING EYELASH AND EYE BROW HAIR GROWTH” (priority 2010, published 2011).
Where two headings read alike, the source gives them in different places.

What was measured:
[1] = test system: cultured human hair follicles; details: cited from earlier work; for Effect on hair follicle growth in the absence of insulin: IGF-I and IGF-II 0.01-100 ng/ml; for Effect on hair follicle growth in the presence of insulin: 10 micrograms/ml insulin present; for Preventing hair follicles from entering a catagen-like state, compared with insulin / Rate of hair follicle growth compared with 10 micrograms/ml insulin: IGF-I 10 ng/ml, IGF-II 100 ng/ml
[2] = in vivo; cited from earlier work
[3] = Excerpt: Discontinue the treatment till it disappears and restart the program. Latisse needs a prescription from a doctor in order to purchase Latisse like you would get any other medication. […] If one develops hypoglycemic symptoms due to any number of reasons, drink a sugar drink, eat a candy, or fruit cocktail.
eyelash hair follicles = experiment: Eyelash hair growth / hair follicle transplant after topical application; assay type: in vivo; details: insulin alone, no second hypertrichosis agent
Excerpt: Step 4: Apply selected hair growth therapeutic agent if need be such as minoxidil or prostaglandin derived hair growth promoters which are already approved for hair growth of the eyelashes. […] Apply the clean dressing on the wound if need be.
Step 4: Apply selected hair growth therapeutic agent using PGF 2α, and analogues. Using these hair growing prostaglandins after pretreatment of the eye lids site with insulin results in much more rapid hair growth compared to when applied without insulin.

indolent ulcers = experiment: Local insulin on indolent ulcers, wound healing; assay type: in vivo; details: insulin spray on indolent ulcers, unpublished data
Excerpt: We have used insulin for more than a decade to enhance the effectiveness of locally injected therapeutic agents specially cancers with chemotherapeutic agents with remarkable results. Our unpublished data also supports that the insulin spray on indolent ulcers anywhere in the body, including the oral (gums) and nasal cavity. […] Application of insulin soaked cotton swabs (1-3 units in normal saline) after teeth extraction induces rapid healing with reduced pain.

[4] = test system: MCF-7 human breast cancer cells; details: MCF-7 cells; cited from earlier work

Row | Substance | Effect on hair follicle growth in the absence of insulin [1] | Effect on hair follicle growth in the presence of insulin [1] | Preventing hair follicles from entering a catagen-like state, compared with insulin [1] | Rate of hair follicle growth compared with 10 micrograms/ml insulin [1] | Concentration giving maximum rates of hair follicle growth ([1]; in the absence of insulin) [ng/mL] | also measured
1 | Growth hormone: growth hormone (somatotropin) | no effect on hair follicle growth or morphology | – | – | – | – | –
2 | IGF-II: Insulin-like growth factor II | stimulated hair follicle growth in a dose-dependent manner | no significant effect on hair follicle growth | more potent than insulin | unable to stimulate hair follicle growth to the same extent as insulin | 100 | –
3 | Regular (R) humulin or novolin: Short-acting insulin | – | – | – | – | – | Duration of action [2]: 5 to 8 h; Onset of action [2]: 30 to 60 min; Peak effect [2]: 2 to 5 h
4 | Insulin: hormone secreted by beta cells in the islets of Langerhans in the pancreas | – | – | – | – | – | Hypoglycemia ([3]; after application of insulin to the eye lids): none of our cases developed hypoglycemia; Darkening of the eye lids ([3]; insulin alone): did not result in any appreciable darkening of the eye lids; Wound healing, uptake and growth of hair follicle transplant (eyelash hair follicles): enough to facilitate rapid wound healing along with uptake and growth of hair follicle transplant; Wound healing (indolent ulcers): accelerated wound healing; Concentration giving maximum rates of hair follicle growth ([1]; follicles maintained in medium containing insulin): 10 micrograms/ml; Effect of insulin on hair follicle growth ([1]; range of 0.01 to 100 micrograms/ml): stimulated hair follicle growth in a dose-dependent manner; Increase of the cytotoxic effect of methotrexate [4]: up to 10,000 fold
5 | IGF-I: insulin-like growth factor 1, a growth hormone believed to work with androgens to initiate and maintain hair growth | stimulated hair follicle growth in a dose-dependent manner | no significant effect on hair follicle growth | more potent than insulin | identical | 10 | –
